Reference: patent US10398747B2, “Composition comprising the extract of herbal combination for preventing or treating diabetic peripheral neuropathy” (DONG-A ST CO., LTD., priority 2011, dated 2019)

Experiments:
[1] = tested on: SD male rats with streptozotocin-induced type 1 diabetes; assay: Neurodegeneration: size and thickness of myelin sheath of sciatic nerve by electron microscope, streptozotocin-diabetic SD rats; assay type: in vivo, rat
Description: (§1) The ability of the extracts to alleviate the pain caused by diabetic neuropathy was examined. In this regard, rats with streptozotocin-induced diabetes were separated and orally administered with the extracts at a predetermined dose once a day for 14 weeks, with α-lipoic acid 50 mg/kg and Gabapentin 100 mg/kg serving as positive controls. A Randall-Sellito test was performed to measure a threshold response to pressure on a paw. The latent time taken to respond to a thermal pain was measured using a tail-flick test. In order to evaluate the neurodegeneration which had progressed with the onset of diabetic neuropathy, the sciatic nerve taken from the rats of each group was fixed with formalin and observed under an electron microscope to measure the size and thickness of the myelin sheath, and the results are summarized in Table 9.

[2] = tested on: nerve growth factor (NGF); assay: NGF level in sciatic nerve of db/db male mice with type 2 diabetes (ELISA); assay type: in vivo, mouse
Description: (§2) db/db Male mice, each weighing 40^˜45 g, were acclimated for one week at 22-24° C. at a relative humidity of 60-80%, with a standard diet and water fed thereto. On the day of the 9th week after birth, the mice in which diabetes had been induced were selected. Four weeks later, mice suffering from type 2 diabetes were separated according to blood sugar level. The extracts prepared in the above Examples were orally administered once a day for 12 weeks at predetermined doses to the mice, while α-lipoic acid and gabapentin were used as positive controls at a dose of 50 mg/kg and 100 mg/kg, respectively. Mice in each group were placed on a 58° C. hot plate, and examined for hyperalgesia to heat stimulus by measuring the latent time it took for the mice to feel a heat pain on their foot soles and jump.
Then, the mice were sacrificed to obtain the sciatic nerve therefrom. The sciatic nerve was processed in the same manner as in Test Example 1 and its NGF level was measured by ELISA.

[3] = tested on: nerve growth factor (NGF); assay: Test for in vivo level of nerve growth factor in normal mouse model (ELISA); conditions: normal male ICR mice
Description: Ability of the crude extract with 50% ethanol in Example 1 to induce the secretion of nerve growth factor in vivo was evaluates (O. Arrieta and J. Sotelo et al., Retinoic acid increased tissue and plasma contents of nerve growth factor and prevents neuropathy in diabetic mice. European Journal of Clinical Investigation (2005) 35).
Male ICR mice, each weighing 25-30 g, were acclimated for 1 week at 22-24° C. at a relative humidity of 60-80% while being fed with water and a standard diet. They were divided into groups according to weight. The extracts prepared in the above Examples were orally administered in predetermined amounts to the mice, with Gabapentin used as a positive control at a doe of 100 mg/kg. 16 hours after which blood was sampled from the mice. They were then sacrificed to obtain the sciatic nerve and the salivary glands.
After the blood samples were centrifuged at 10,000 rpm for 10 min, the levels of nerve growth factor in the plasma thus separated were measured by ELISA (ABS 440 nm). The sciatic nerve and the salivary glands were weighed and a solution containing 100 mM Tris-HCl, 1M NaCl, 2% BSA, 4 mM EDTA, 2.0% Trtion®X-100, 0.02% sodium azide, 0.1 mg/ml pepstatin A, 5 mg/ml aprotonin, 0.5 mg/ml antipain, 167 mg/ml benzamidine, and 5.2 mg/ml PMSF was added in amounts proportional to the weights, followed by homogenization. The homogenates were incubated for 15 min with 1N HCl in an amount of 1 μl/50 μl for oxidization and neutralized with 1N NaOH in an amount of 1 μl/50 μl. Centrifugation was performed at 10,000 rpm for 10 min to obtain supernatants. Like plasma, the sciatic nerve and the salivary glands were quantitatively analyzed for the level of nerve growth factor.

[4] = tested on: db/db male mice with type 2 diabetes; assay: 58° C. hot plate test, db/db male mice with type 2 diabetes; assay type: in vivo, mouse
Description: as §2

[5] = tested on: nerve growth factor (NGF); assay: NGF level in sciatic nerve and salivary gland of ICR male mice with streptozotocin-induced type 1 diabetes (ELISA); assay type: in vivo, mouse; conditions: streptozotocin-diabetic ICR male mice
Description: (§3) ICR male mice, each weighing 25^˜30 g, were acclimated for one week at 22-24° C. at a relative humidity of 60-80%, with a standard diet and water fed thereto. Thereafter, a solution of streptozotocin in saline was intravenously administered once at a dose of 200 mg/kg to the mice to induce type 1 diabetes. Four weeks after the induction of diabetes, rats were divided into groups according to blood sugar level. The extracts prepared in the above Examples were orally administered once a day for 14 weeks at predetermined doses to the mice, while α-lipoic acid and Gabapentin were used as positive controls at a dose of 50 mg/kg and 100 mg/kg, respectively. Mice in each group were placed on a 58° C. hot plate, and examined for hyperalgesia to heat stimulus by measuring the latent time it took for the mice to feel a heat pain on their foot soles and jump.
Then, the mice were sacrificed to obtain the sciatic nerve and the salivary glands therefrom. The sciatic nerve and the salivary glands were processed in the same manner as in Test Example 1 and measured for NGF level by ELISA.

[6] = tested on: SD male rats with streptozotocin-induced type 1 diabetes; assay: Randall-Sellito test, threshold response to pressure on a paw, streptozotocin-diabetic SD rats; assay type: in vivo, rat
Description: as §1
(§4) An increase in threshold to mechanical stimuli delineates an increase in threshold to pain. In the tail flick test, an increase in latent time to pain response corresponds to an increase in threshold to thermal stimuli, indicating the alleviation of pain.

[7] = tested on: ICR male mice with streptozotocin-induced type 1 diabetes; assay: 58° C. hot plate test, ICR male mice with streptozotocin-induced type 1 diabetes; assay type: in vivo, mouse; conditions: streptozotocin-diabetic ICR male mice
Description: as §3

[8] = tested on: nerve growth factor (NGF); assay: NGF level in sciatic nerve and salivary gland of SD male rats with streptozotocin-induced type 1 diabetes (ELISA); assay type: in vivo, rat; conditions: streptozotocin-diabetic SD male rats
Description: SD male rats, each weighing 220^˜250 g, were acclimated for one week at 22-24° C. at a relative humidity of 60-80% with standard diet and water fed thereto. Thereafter, a solution of streptozotocin in saline was intravenously administered once at a dose of 50 mg/kg to the rats to induce type 1 diabetes. Four weeks after the induction of diabetes, rats were divided into groups according to blood sugar level. The extracts prepared in the above Examples were orally administered once a day for 8 weeks at predetermined doses to the rats, while α-lipoic acid and Gabapentin were used as positive controls at does of 50 mg/kg and 100 mg/kg, respectively. Then, they were sacrificed to obtain the sciatic nerve and the salivary glands. The sciatic nerve and the salivary glands were processed in the same manner as in Test Example 1 and measured for NGF level by ELISA.

[9] = tested on: SD male rats with streptozotocin-induced type 1 diabetes; assay: Tail-flick test, latent time to thermal pain, streptozotocin-diabetic SD rats; assay type: in vivo, rat
Description: as §1, §4

[10] = tested on: TrkA (NGF receptor); assay: Phosphorylation of NGF receptor in PC12 nerve cells (Western blotting); assay type: cell-based, rat; conditions: 48 hours
Description: For use in this test, PC12 nerve cells were seeded at the same density per well into plates and incubated for 24 hours. The cells were washed with PBS and cultured for 48 hours in culture media supplemented with the herb extracts of Example 1 or Comparative Examples 1 to 10 or NGF. Thereafter, phosphorylated TrkA (NGF receptor) were detected using Western blotting, and quantitatively analyzed on the basis of the thickness of the detected bands.
NGF signaling starts with the binding of NGF to its receptor (Trk-A), which results in the phosphorylation of the receptor. Thus, an increased level of phosphorylated NGF receptors means the amplification of the NGF signaling pathway.

[11] = tested on: PC12 nerve cells; assay: Growth of PC12 nerve cells (MTS assay); assay type: cell-based, rat; conditions: 48 hours
Description: For use in a test for ability to induce nerve cell growth, PC12 nerve cells were seeded at the same density per well into plates and incubated for 24 hours.

[12] = tested on: DRG (Dorsal root ganglion) nerve cells; assay: Growth of neurites in rat-derived DRG nerve cells (neurite area under microscope); assay type: cell-based; conditions: rat embryo DRG cells, 48 hours
Description: For use in this test, DRG nerve cells were seeded at the same density into plates and incubated for 24 hours. Thereafter, the cells were washed with PBS and cultured for 48 hours in a culture medium in the absence or presence of a combination of the extract of Example 1 or Comparative Examples 1 to 10, and NGF. The nerve cells in each group were observed under a microscope to measure the area of the neurites grown therein.

[13] = oral 100 mg/kg once a day for 12 weeks
[14] = oral 100 mg/kg, 16 hours after dosing
[15] = oral 100 mg/kg once a day for 14 weeks
[16] = oral 100 mg/kg once a day for 8 weeks
[17] = 50 mg/kg once a day for 12 weeks
[18] = 50 mg/kg once a day for 14 weeks
[19] = 50 mg/kg once a day for 8 weeks

NCC1(CC(=O)O)CCCCC1 [Gabapentin]
Size of Myelin sheath ([1]; 100 mg/kg): 10.4 μm
Thickness of Myelin sheath ([1]; 100 mg/kg): 2.2 μm
NGF Level in Sciatic Nerve [2, 13]: 7.2 pg/mg
NGF Level in Plasma [3, 14]: 610.4 pg/mL
NGF Level in Salivary Gland [3, 14]: 193.1 ng/mg
NGF Level in Sciatic Nerve [3, 14]: 4.2 pg/mg
Latent Time to Pain Response on 58° C. Hot Plate [4, 13]: 16.1 s
NGF Level Salivary Gland [5, 15]: 117.1 ng/mg
NGF Level Sciatic Nerve [5, 15]: 5.5 pg/mg
Pressure Pain Threshold [6, 15]: 137.7 g
Latent Time to Pain Response on 58° C. Hot Plate [7, 15]: 33.0 s
NGF Level Salivary Gland [8, 16]: 2.4 ng/mg
NGF Level Sciatic Nerve [8, 16]: 14.9 pg/mg
Latent Time to Pain Reaction [9, 15]: 7.7 s

O=C(O)CCCCC1CCSS1 (stereo not drawn) [α-Lipoic acid]
Size of Myelin sheath ([1]; 50 mg/kg): 11.2 μm
Thickness of Myelin sheath ([1]; 50 mg/kg): 2.6 μm
NGF Level in Sciatic Nerve [2, 17]: 7.6 pg/mg
NGF Level in Salivary Gland ([3]; 50 mg/kg): 164.4 ng/mg
NGF Level in Sciatic Nerve ([3]; 50 mg/kg): 5.0 pg/mg
Latent Time to Pain Response on 58° C. Hot Plate [4, 17]: 15.4 s
NGF Level Salivary Gland [5, 18]: 118.7 ng/mg
NGF Level Sciatic Nerve [5, 18]: 5.7 pg/mg
Pressure Pain Threshold [6, 18]: 150.0 g
Latent Time to Pain Response on 58° C. Hot Plate [7, 18]: 31.1 s
NGF Level Salivary Gland [8, 19]: 2.8 ng/mg
NGF Level Sciatic Nerve [8, 19]: 13.8 pg/mg
Latent Time to Pain Reaction [9, 18]: 7.4 s

NGF: nerve growth factor added to culture media
Relative Amount of Phosphorylated NGF ([10]; NGF 2 ng/ml alone): 241 % of control
Relative Amount of Phosphorylated NGF ([10]; NGF 50 ng/ml alone): 337 % of control
Proliferative Effect on Nerve Cell ([11]; 2 ng/ml): 112 % of control
Proliferative Effect on Nerve Cell ([11]; 50 ng/ml): 118 % of control
Neurite Area of DRG Nerve Cell ([12]; NGF 2 ng/ml alone): 235 μm^2
Neurite Area of DRG Nerve Cell ([12]; NGF 50 ng/ml alone): 461 μm^2
